{"source": "patent US20040141944A1", "about": "“Inhibition of xenoreactive antibodies” (priority 1998, published 2004)", "test_system": "xenoreactive IgG (X IgG) and xenoreactive IgM (X IgM)", "assay": "effect of TPC on xenoreactive antibody levels in cynomolgous monkeys", "type": "in vivo", "procedure": "TPC molecule 410S was prepared as described in Example 5. 410S or PEG control was administered to cynomolgous monkeys in doses of either 50 mg or 250 mg every 3 days for 2 weeks. Blood was drawn for serum before and after each administration. During the subsequent 2 week period, blood was drawn each Monday and Friday. Serum samples were analyzed for xenoreactive IgG (X IgG) and xenoreactive IgM (X IgM)."}
{"substance": "(αGal(1,3)Gal β 1-4 GlcNAc)4-PEG [Example 410S]", "values": [{"measurement": "effect on anti-Gal IgG levels", "setting": "50 mg and 250 mg doses, compared with the IgM effect", "result": "the effect was not as dramatic"}, {"measurement": "anti-Gal IgM level, % of the initial level", "setting": "50 mg animals, 15 days post-treatment", "result": "~40", "unit": "%"}, {"measurement": "anti-Gal IgM level, % of the initial level", "setting": "50 mg dose every 3 days, after 6 TPC treatments", "result": "approximately 15%"}, {"measurement": "anti-Gal IgM level, % of the predosing level", "setting": "250 mg animals, 15 days post-treatment", "result": 15, "unit": "%"}, {"measurement": "anti-Gal IgM level, % of the initial level", "setting": "250 mg dose every 3 days, after 6 TPC treatments", "result": "approximately 5%"}]}
